Test results from patent publication US10570129B2 (Zoetis Services LLC, priority 2015, dated 2020).

Assays:
Haemonchus contortus L3 = assay: microbe, parasite or virus in culture; format: cell-based; conditions: for minimal effective concentration: Haemonchus contortus, 96 h, read-out: HcL3 Minimal Effective Concentration (MEC)
D. immitis microfilariae = assay: Dirofilaria immitis, microfilariae (DiMF) in vitro motility assay; format: cell-based; conditions: for minimal effective concentration: Dirofilaria immitis, 72 h, read-out: DiMF minimally effective dose (MEC)
[1] = test system: Trichostrongylus colubriformis; assay: Jird efficacy model; format: in vivo; conditions: for inhibition in vivo at 10 mg/kg: Trichostrongylus colubriformis, sc, 96 h, read-out: Jird % (percentage efficacy)

Structure (SMILES) | minimal effective concentration (Haemonchus contortus L3) | minimal effective concentration (D. immitis microfilariae) | inhibition in vivo at 10 mg/kg [1] | HcL3 Minimal Effective Concentration (MEC) (Haemonchus contortus L3) | DiMF minimally effective dose (MEC) (D. immitis microfilariae; decrease in microfilariae motility by subjective visual assessment, observed at 72 hours) | Jird % (percentage efficacy) ([1]; Mongolian gerbil (jird) infected with T. colubriformis, 10 mg/kg subcutaneous, worm count approximately four days after dosing)
O=C(NCc1ccnc(F)c1)n1c2c(c3cc(F)c(Cl)cc31)CN(C/C=C/c1ccc(Cl)cc1)CC2 [Example 317, (E)-7-chloro-2-(3-(4-chlorophenyl)allyl)-8-fluoro-N-((2-fluoropyridin-4-yl)methyl)-1,2,3,4-tetrahydro-5H-pyrido[4,3-b]indole-5-carboxamide] | 1 µM | 18.2 µM | 100% |  |  | 
N#Cc1ccc2c3c(n(C(=O)NCc4ccnc(Cl)c4)c2c1)CCN(C/C=C/c1c(F)cc(Cl)cc1F)C3 [Example 6, (E)-2-(3-(4-chloro-2,6-difluorophenyl)allyl)-N-((2-chloropyridin-4-yl)methyl)-7-cyano-1,2,3,4-tetrahydro-5H-pyrido[4,3-b]indole-5-carboxamide] | 2.4 µM | 18.2 µM | 99% |  |  | 
N#Cc1ccc2c(c1)c1c(n2C(=O)NCc2ccnc(F)c2)CCN(C/C=C/c2cc(F)c(Cl)c(F)c2)C1 [Example 99, (E)-2-(3-(4-chloro-3,5-difluorophenyl)allyl)-8-cyano-N-((2-fluoropyridin-4-yl)methyl)-1,2,3,4-tetrahydro-5H-pyrido[4,3-b]indole-5-carboxamide] | 0.1 µM | 10 µM | 100% |  |  | 
N#Cc1ccc2c3c(n(C(=O)NCc4ccnc(Cl)c4)c2c1)CCN(C/C=C/c1ccc(Cl)cc1Cl)C3 [Example 3, (E)-N-[(2-chloro-4-pyridyl)methyl]-7-cyano-2-[(E)-3-(2,4-dichlorophenyl)allyl]-3,4-dihydro-1H-pyrido[4,3-b]indole-5-carboxamide] |  |  |  | 1.0 µM | 18.2 µM | 99%
N#Cc1ccc(/C=C/CN2CCc3c(c4c(F)cc(C(F)(F)F)cc4n3C(=O)NCc3ccnc(Cl)c3)C2)cc1 [Example 321, (E)-N-((2-chloropyridin-4-yl)methyl)-2-(3-(4-cyanophenyl)allyl)-9-fluoro-7-(trifluoromethyl)-1,2,3,4-tetrahydro-5H-pyrido[4,3-b]indole-5-carboxamide] | 2.4 µM | 5.7 µM | 100% |  |  | 
N#Cc1ccc2c3c(n(C(=O)NCc4ccnc(Cl)c4)c2c1)CCN(C/C=C/c1cccc(F)c1F)C3 [Example 32, (E)-N-((2-chloropyridin-4-yl)methyl)-7-cyano-2-(3-(2,3-difluorophenyl)allyl)-1,2,3,4-tetrahydro-5H-pyrido[4,3-b]indole-5-carboxamide] | 1.8 µM | 18.2 µM | 100% |  |  | 
O=C(NCc1ccnc(F)c1)n1c2c(c3cc(C(F)(F)F)ccc31)CN(C/C=C/c1ccc(F)c(Cl)c1)CC2 [Example 418, (E)-2-(3-(3-chloro-4-fluorophenyl)allyl)-N-((2-fluoropyridin-4-yl)methyl)-8-(trifluoromethyl)-1,2,3,4-tetrahydro-5H-pyrido[4,3-b]indole-5-carboxamide] | 3.3 µM | 18.2 µM | 95% |  |  | 
O=C(NCc1ccnc(Cl)c1)n1c2c(c3ccc(Cl)cc31)CN(C/C=C/c1ccc(F)c(F)c1)CC2 [Example 211, (E)-7-chloro-N-((2-chloropyridin-4-yl)methyl)-2-(3-(3,4-difluorophenyl)allyl)-1,2,3,4-tetrahydro-5H-pyrido[4,3-b]indole-5-carboxamide] | 1 µM | 10 µM | 100% |  |  | 
O=C(NCc1ccnc(Cl)c1)n1c2c(c3cc4c(cc31)COC4)CN(C/C=C/c1ccc(F)cc1)CC2 [Example 481, (E)-N-((2-chloropyridin-4-yl)methyl)-8-(3-(4-fluorophenyl)allyl)-1,3,6,7,8,9-hexahydro-5H-furo[3,4-f]pyrido[4,3-b]indole-5-carboxamide] | 0.3 µM | 3.3 µM | 99% |  |  | 
O=C(NCc1ccnc(F)c1)n1c2c(c3cc(C(F)(F)F)ccc31)CN(C/C=C/c1ccc(Cl)cc1)CC2 [Example 421, (E)-2-(3-(4-chlorophenyl)allyl)-N-((2-fluoropyridin-4-yl)methyl)-8-(trifluoromethyl)-1,2,3,4-tetrahydro-5H-pyrido[4,3-b]indole-5-carboxamide] | 3.3 µM | 12.7 µM | 100% |  |  | 
O=C(NCc1ccnc(F)c1)n1c2c(c3cc(C(F)(F)F)ccc31)CN(C/C=C/c1ccc(F)c(F)c1)CC2 [Example 419, (E)-2-(3-(3,4-difluorophenyl)allyl)-N-((2-fluoropyridin-4-yl)methyl)-8-(trifluoromethyl)-1,2,3,4-tetrahydro-5H-pyrido[4,3-b]indole-5-carboxamide] | 1 µM | 10 µM | 100% |  |  | 
N#Cc1ccc2c(c1)c1c(n2C(=O)NCc2ccnc(Cl)c2)CCN(C/C=C/c2ccc(F)cc2F)C1 [Example 88, (E)-N-((2-chloropyridin-4-yl)methyl)-8-cyano-2-(3-(2,4-difluorophenyl)allyl)-1,2,3,4-tetrahydro-5H-pyrido[4,3-b]indole-5-carboxamide] | 0.1 µM | 3.3 µM | 99% |  |  | 
CS(=O)(=O)c1ccc2c(c1)c1c(n2C(=O)NCc2ccnc(Cl)c2)CCN(C/C=C/c2ccc(F)cc2)C1 [Example 459, (E)-N-((2-chloropyridin-4-yl)methyl)-2-(3-(4-fluorophenyl)allyl)-8-(methylsulfonyl)-1,2,3,4-tetrahydro-5H-pyrido[4,3-b]indole-5-carboxamide] | 1 µM | 5.7 µM | 92% |  |  | 
N#Cc1ccc2c(c1)c1c(n2C(=O)NCc2ccnc(F)c2)CCN(C/C=C/c2ccc(Cl)c(Cl)c2)C1 [Example 122, (E)-8-cyano-2-(3-(3,4-dichlorophenyl)allyl)-N-((2-fluoropyridin-4-yl)methyl)-1,2,3,4-tetrahydro-5H-pyrido[4,3-b]indole-5-carboxamide] | 1 µM | 18.2 µM | 100% |  |  | 
N#Cc1ccc2c3c(n(C(=O)NCc4ccnc(Cl)c4)c2c1)CCN(C/C=C/c1cc(F)c(Cl)c(F)c1)C3 [Example 1, (E)-2-(3-(4-chloro-3,5-difluorophenyl)allyl)-N-((2-chloropyridin-4-yl)methyl)-7-cyano-1,2,3,4-tetrahydro-5H-pyrido[4,3-b]indole-5-carboxamide] | 0.2 µM | 0.2 µM | 100% |  |  | 
N#Cc1ccc2c3c(n(C(=O)NCc4ccnc(Cl)c4)c2c1)CCN(C/C=C/c1ccc(F)cc1)C3 [Example 36, (E)-N-((2-chloropyridin-4-yl)methyl)-7-cyano-2-(3-(4-fluorophenyl)allyl)-1,2,3,4-tetrahydro-5H-pyrido[4,3-b]indole-5-carboxamide] | 5.7 µM | 3.3 µM | 100% |  |  | 
O=C(NCc1ccnc(Cl)c1)n1c2c(c3ccc(C(F)(F)F)cc31)CN(C/C=C/c1ccc(Cl)cc1)CC2 [Example 156, (E)-2-(3-(4-chlorophenyl)allyl)-N-((2-chloropyridin-4-yl)methyl)-7-(trifluoromethyl)-1,2,3,4-tetrahydro-5H-pyrido[4,3-b]indole-5-carboxamide] | 0.5 µM | 33 µM | 99% |  |  | 
O=C(NCc1ccnc(F)c1)n1c2c(c3ccc(OC(F)(F)F)cc31)CN(C/C=C/c1cc(F)c(F)c(F)c1)CC2 [Example 377, (E)-N-((2-fluoropyridin-4-yl)methyl)-7-(trifluoromethoxy)-2-(3-(3,4,5-trifluorophenyl)allyl)-1,2,3,4-tetrahydro-5H-pyrido[4,3-b]indole-5-carboxamide] | 0.3 µM | 5.7 µM | 99% |  |  | 
N#Cc1ccc(/C=C/CN2CCc3c(c4ccc(C(F)(F)F)cc4n3C(=O)NCc3ccnc(F)c3)C2)cc1 [Example 164, (E)-2-(3-(4-cyanophenyl)allyl)-N-((2-fluoropyridin-4-yl)methyl)-7-(trifluoromethyl)-1,2,3,4-tetrahydro-5H-pyrido[4,3-b]indole-5-carboxamide] | 3.3 µM | 10 µM | 100% |  |  | 
N#Cc1ccc(/C=C/CN2CCc3c(c4cc(F)c(OC(F)(F)F)cc4n3C(=O)NCc3ccnc(Cl)c3)C2)cc1 [Example 470, (E)-N-((2-chloropyridin-4-yl)methyl)-2-(3-(4-cyanophenyl)allyl)-8-fluoro-7-(trifluoromethoxy)-1,2,3,4-tetrahydro-5H-pyrido[4,3-b]indole-5-carboxamide] | 1 µM | 13.5 µM | 100% |  |  | 
O=C(NCc1cnc(Cl)s1)n1c2c(c3cc4c(cc31)COC4)CN(C/C=C/c1ccc(Cl)cc1)CC2 [Example 489, (E)-8-(3-(4-chlorophenyl)allyl)-N-((2-chlorothiazol-5-yl)methyl)-1,3,6,7,8,9-hexahydro-5H-furo[3,4-f]pyrido[4,3-b]indole-5-carboxamide] | 3.3 µM | 3.3 µM | 100% |  |  | 
O=C(NCc1ccnc(F)c1)n1c2c(c3ccc(C(F)(F)F)cc31)CN(C/C=C/c1ccc(Cl)cc1)CC2 [Example 165, (E)-2-(3-(4-chlorophenyl)allyl)-N-((2-fluoropyridin-4-yl)methyl)-7-(trifluoromethyl)-1,2,3,4-tetrahydro-5H-pyrido[4,3-b]indole-5-carboxamide] | 3.3 µM | 3.3 µM | 100% |  |  | 
